Experimental data as given in US4602006A, “Ynenolactone protease inhibitors” (Syntex (U.S.A.) Inc., priority 1984, dated 1986).

Molecular target: T1, Human Leukocyte Elastase (Homo sapiens, UniProt P08246)
T1 construct: fresh human leukocytes were obtained from a healthy donor; from tissue; host or cells: human leukocytes from a healthy donor (homogenized)
T1 sequence (P08246 30-247 limits assumed): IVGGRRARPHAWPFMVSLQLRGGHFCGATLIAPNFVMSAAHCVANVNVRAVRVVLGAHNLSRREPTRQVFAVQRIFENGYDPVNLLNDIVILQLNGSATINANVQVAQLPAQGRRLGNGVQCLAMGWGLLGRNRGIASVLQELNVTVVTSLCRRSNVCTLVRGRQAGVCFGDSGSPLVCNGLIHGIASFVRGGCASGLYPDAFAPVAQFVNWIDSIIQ
Experiment: Inactivation of Human Leukocyte Elastase (fluorogenic substrate assay)
Type: biochemical

- kinact (25° C., pH 7.8, substrate MeOSuc-Ala-Ala-Pro-Val-methylcoumarinamide, read-out: maximum inactivation rate): 0.09 s⁻¹
- KI (inactivation) (half-maximal inactivation rate, 25° C., pH 7.8, read-out: inhibitor concentration required for half-maximal rate): 4.1 µM
SMILES: C#C/C=C1\CC(Cc2ccccc2)C(=O)O1 (stereo not shown) [3-Benzyl-5(E)-(prop-2-ynylidene)tetrahydro-2-furanone]
- irreversibility of inactivation (0.24 nanomoles HL elastase + 4 microliters 2 mM inhibitor, 25° C., after 17 minutes chromatographed on Sephadex G-50): irreversibility of this inactivation was shown
- mode of enzyme inactivation (inhibitor added after recording the uninhibited rate): inactivated in a time and concentration dependent manner
